Experimental data from PubChem BioAssay AID248 (DTP/NCI, 2004).
“And” between values parts separate entries of the source, which are not always exact repeats. Equal values may be shown once. Toxic doses and inconclusive results are not listed. No stated cut-off is given here; in the data, active means T/C of 150% or more; inactive means T/C below 125%.

Test system: L1210 leukemia ip in BDF1 mice, survival T/C
Experiment: NCI In Vivo Anticancer Drug Screen. Data for tumor model L1210 Leukemia (intraperitoneal) in B6D2F1 (BDF1) mice
Details: endpoint: mean survival time, higher = longer survival
Method in brief: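 Tumor cells were implanted, animals were treated, and survival was followed. The result divides the treated measurement by the vehicle-control measurement.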

[1] = dose: 100.0 mg/kg/injection, schedule: Q04DX003 (ip), vehicle: Klucel (hydroxypropylcellulose) (HPC)
[2] = dose: 200.0 mg/kg/injection, schedule: Q04DX003 (ip), vehicle: Klucel (hydroxypropylcellulose) (HPC)
[3] = dose: 400.0 mg/kg/injection, schedule: Q04DX003 (ip), vehicle: Klucel (hydroxypropylcellulose) (HPC)
[4] = dose: 100.0 mg/kg/injection, schedule: Q01DX009 (ip), vehicle: saline with Tween-80
[5] = dose: 100.0 mg/kg/injection, schedule: Q04DX003 (ip), vehicle: saline with Tween-80
[6] = dose: 200.0 mg/kg/injection, schedule: Q01DX009 (ip), vehicle: saline with Tween-80
[7] = dose: 200.0 mg/kg/injection, schedule: Q04DX003 (ip), vehicle: saline with Tween-80
[8] = dose: 400.0 mg/kg/injection, schedule: Q01DX009 (ip), vehicle: saline with Tween-80
[9] = dose: 400.0 mg/kg/injection, schedule: Q04DX003 (ip), vehicle: saline with Tween-80
[10] = dose: 100.0 mg/kg/injection, schedule: Q01DX001 (ip), vehicle: carboxymethylcellulose (CMC)
[11] = dose: 200.0 mg/kg/injection, schedule: Q01DX001 (ip), vehicle: carboxymethylcellulose (CMC)
[12] = dose: 400.0 mg/kg/injection, schedule: Q01DX001 (ip), vehicle: carboxymethylcellulose (CMC)
[13] = dose: 50.0 mg/kg/injection, schedule: Q01DX009 (ip), vehicle: saline with Tween-80
[14] = dose: 100.0 mg/kg/injection, schedule: Q01DX009 (ip), vehicle: Klucel (hydroxypropylcellulose) (HPC)
[15] = dose: 200.0 mg/kg/injection, schedule: Q01DX009 (ip), vehicle: Klucel (hydroxypropylcellulose) (HPC)
[16] = dose: 400.0 mg/kg/injection, schedule: Q01DX009 (ip), vehicle: Klucel (hydroxypropylcellulose) (HPC)
[17] = dose: 100.0 mg/kg/injection, schedule: Q01DX001 (ip), vehicle: saline
[18] = dose: 100.0 mg/kg/injection, schedule: Q04DX003 (ip), vehicle: saline
[19] = dose: 200.0 mg/kg/injection, schedule: Q01DX001 (ip), vehicle: saline
[20] = dose: 200.0 mg/kg/injection, schedule: Q04DX003 (ip), vehicle: saline
[21] = dose: 400.0 mg/kg/injection, schedule: Q01DX001 (ip), vehicle: saline
[22] = dose: 400.0 mg/kg/injection, schedule: Q04DX003 (ip), vehicle: saline

Measured: T/C

CC(=O)C(C(=O)c1ccccc1)C(c1ccccc1)c1ccccc1 (stereo not given)
inactive: dose: 100.0 mg/kg/injection, schedule: Q01DX001 (ip), vehicle: Klucel (hydroxypropylcellulose) (HPC) 93 % of control | [1] 92 % of control | dose: 200.0 mg/kg/injection, schedule: Q01DX001 (ip), vehicle: Klucel (hydroxypropylcellulose) (HPC) 90 % of control | [2] 96 % of control | dose: 400.0 mg/kg/injection, schedule: Q01DX001 (ip), vehicle: Klucel (hydroxypropylcellulose) (HPC) 92 % of control | [3] 94 % of control

CCOP(=O)(OCC)c1ccc(N=Cc2cnc3nc(NC(C)=O)[nH]c(=O)c3n2)cc1
inactive: dose: 100.0 mg/kg/injection, schedule: Q01DX001 (ip), vehicle: other 109 % of control | dose: 200.0 mg/kg/injection, schedule: Q01DX001 (ip), vehicle: other 112 % of control | dose: 400.0 mg/kg/injection, schedule: Q01DX001 (ip), vehicle: other 101 % of control

c1ccc(Nc2n[n+](-c3ccccc3)no2)cc1
inactive: [4] 106 % of control | [5] 108 % of control | [6] 101 % of control | [7] 100 % of control | [8] 108 % of control | [9] 110 % of control

COc1cc(F)cc([N+](=O)[O-])c1
inactive: [10] 95 % of control | [11] 97 % of control | [12] 97 % of control

O=C1c2ccccc2Cc2ccc(-c3ccccc3)cc21
inactive: [13] 92 % of control | [4] 95 % of control | [6] 89 % of control

CCOC(=O)c1c(C)[nH]c2ccc(O)cc12
inactive: [14] 92 % of control | [1] 95 % of control | [15] 104 % of control | [2] 100 % of control | [16] 114 % of control | [3] 100 % of control

CCCCCCCCCCCCCCCC[N+]1(CCCC)CCOCC1
inactive: [1] 86 % of control | [2] 101 % of control

COC(=O)CCC(C)C1CCC2C3CCC4CC(OC(=O)c5ccccc5)CCC4(C)C3CC(=O)C12C (stereo not given)
inactive: dose: 100.0 mg/kg/injection, schedule: Q01DX001 (sc), vehicle: steriod suspending solution 102 % of control | dose: 100.0 mg/kg/injection, schedule: Q01DX009 (sc), vehicle: steriod suspending solution 93 % of control | dose: 200.0 mg/kg/injection, schedule: Q01DX001 (sc), vehicle: steriod suspending solution 106 % of control | dose: 200.0 mg/kg/injection, schedule: Q01DX009 (sc), vehicle: steriod suspending solution 98 % of control | dose: 400.0 mg/kg/injection, schedule: Q01DX001 (sc), vehicle: steriod suspending solution 104 % of control | dose: 400.0 mg/kg/injection, schedule: Q01DX009 (sc), vehicle: steriod suspending solution 99 % of control

Cl/C=C\C[N+]12CN3CN(CN(C3)C1)C2
inactive: dose: 25.0 mg/kg/injection, schedule: Q04DX003 (ip), vehicle: saline 100 % of control | dose: 50.0 mg/kg/injection, schedule: Q04DX003 (ip), vehicle: saline 94 % of control

OC(c1ccccc1)(c1ccccc1)c1ccncc1
inactive: [13] 96 % of control

N#CC(C(=O)c1ccccc1)=C([SH2+])[SH2+].N#CC(C(=O)c1ccccc1)=C([SH2+])[SH2+].[Cu+2].c1ccc([AsH](c2ccccc2)(c2ccccc2)c2ccccc2)cc1
inactive: [17] 103 % of control | [18] 100 % of control | [19] 105 % of control | [20] 96 % of control | [21] 98 % of control | [22] 98 % of control

CCOC(=O)c1ccc(N(CCOS(C)(=O)=O)CCOS(C)(=O)=O)cc1
inactive: dose: 7.1 mg/kg/injection, schedule: Q01DX015 (ip), vehicle: saline 98 % of control | dose: 10.0 mg/kg/injection, schedule: Q01DX015 (ip), vehicle: saline 102 % of control | dose: 16.0 mg/kg/injection, schedule: Q01DX015 (ip), vehicle: saline 108 % of control | dose: 25.0 mg/kg/injection, schedule: Q01DX015 (ip), vehicle: saline 113 % of control | dose: 75.0 mg/kg/injection, schedule: Q01DX001 (ip), vehicle: saline 109 % of control | dose: 100.0 mg/kg/injection, schedule: Q01DX015 (ip), vehicle: saline 87 % of control | dose: 300.0 mg/kg/injection, schedule: Q01DX001 (ip), vehicle: saline 120 % of control | dose: 600.0 mg/kg/injection, schedule: Q01DX001 (ip), vehicle: saline 122 % of control | dose: 1000.0 mg/kg/injection, schedule: Q01DX001 (ip), vehicle: saline 116 % of control

CC(NC(=O)OC(C)(C)C)C(=O)O (stereo not given)
inactive: [10] 104 % of control | [11] 104 % of control | [12] 104 % of control

CC(CNC(=O)OCc1ccccc1)C(=O)O (stereo not given)
inactive: dose: 100.0 mg/kg/injection, schedule: Q01DX001 (ip), vehicle: saline with Tween-80 95 % of control | [4] 105 % of control and 117 % of control | dose: 100.0 mg/kg/injection, schedule: Q04DX002 (ip), vehicle: saline with Tween-80 103 % of control | [5] 96 % of control | dose: 200.0 mg/kg/injection, schedule: Q01DX001 (ip), vehicle: saline with Tween-80 93 % of control | [6] 105 % of control and 86 % of control | dose: 200.0 mg/kg/injection, schedule: Q04DX002 (ip), vehicle: saline with Tween-80 100 % of control | [7] 91 % of control | dose: 400.0 mg/kg/injection, schedule: Q01DX001 (ip), vehicle: saline with Tween-80 96 % of control | [8] 94 % of control and 105 % of control | dose: 400.0 mg/kg/injection, schedule: Q04DX002 (ip), vehicle: saline with Tween-80 110 % of control | [9] 95 % of control

Clc1ccc(/C=N/Nc2nnc(N/N=C/c3ccc(Cl)cc3)c3ccccc23)cc1
inactive: dose: 50.0 mg/kg/injection, schedule: Q01DX001 (ip), vehicle: saline 95 % of control | [17] 101 % of control | [19] 101 % of control | [21] 95 % of control

CCOC(CNC(=O)c1cccc(S(=O)(=O)F)c1)OCC
inactive: dose: 100.0 mg/kg/injection, schedule: Q04DX003 (ip), vehicle: saline + alcohol 98 % of control | dose: 200.0 mg/kg/injection, schedule: Q04DX003 (ip), vehicle: saline + alcohol 96 % of control

CC(=O)CCC1CC(=O)OC1(C)C (stereo not given)
inactive: [17] 102 % of control and 100 % of control | dose: 100.0 mg/kg/injection, schedule: Q01DX009 (ip), vehicle: saline 104 % of control and 88 % of control | dose: 100.0 mg/kg/injection, schedule: Q04DX003 (ip), vehicle: acetone 93 % of control | [19] 102 % of control and 100 % of control | dose: 200.0 mg/kg/injection, schedule: Q01DX009 (ip), vehicle: saline 96 % of control and 88 % of control | dose: 200.0 mg/kg/injection, schedule: Q04DX003 (ip), vehicle: acetone 117 % of control | [21] 96 % of control and 106 % of control | dose: 400.0 mg/kg/injection, schedule: Q01DX009 (ip), vehicle: saline 98 % of control and 86 % of control | dose: 400.0 mg/kg/injection, schedule: Q04DX003 (ip), vehicle: acetone 101 % of control

CCCCCCCCCCCCCCCCCC(=O)Oc1ccc(OCc2ccccc2)cc1
inactive: [14] 105 % of control | [15] 95 % of control | [16] 97 % of control

NC(=S)N/N=C/c1c(Cl)[nH]c2ccccc12
inactive: dose: 50.0 mg/kg/injection, schedule: Q04DX002 (ip), vehicle: saline 98 % of control | dose: 100.0 mg/kg/injection, schedule: Q04DX002 (ip), vehicle: saline 102 % of control | dose: 200.0 mg/kg/injection, schedule: Q04DX002 (ip), vehicle: saline 98 % of control

C#CC1(OC(O)C(Cl)(Cl)Cl)CCCCC1 (stereo not given)
inactive: [18] 103 % of control | [20] 106 % of control | [22] 103 % of control

O=C(COc1cccc(Cl)c1Cl)NCc1ccc(Cl)cc1
inactive: [4] 100 % of control | [6] 97 % of control | [8] 96 % of control
